Results reported in patent US8377455B2, “Biosurfactant composition produced by a new Bacillus licheniforms strain, uses and products thereof” (priority 2008, dated 2013).
Read-outs that look alike come from different tables or passages of the source.

Legend:
[1] = test system: P. aeruginosa PA14 biofilm; assay type: cell-based, Pseudomonas aeruginosa
Procedure: (§1) E. coli CFT073 and E. coli O157:H7 were grown on Luria Bertani agar (LB, EMD Chemicals Inc.), P. aeruginosa PA14 and S. aureus were grown on TSB agar. Susceptibility testing of metals was performed in Minimal Salts Vitamins Glucose (MSVG) according to Teitzel and Parsek (2003), while Polycide susceptibility testing was performed in Phosphate Buffered Saline (PBS).
(§2) AgNO3 (Sigma) and CuSO4 (Sigma) were dissolved in double distilled water (ddH2O) to 150 mM and 500 mM respectively. Polycide was diluted in PBS to 25%. Solutions were sterile filtered and stored at 4° C. Serial two-fold dilutions were performed to create the challenge plate.
(§3) Biofilms were grown in the Calgary Biofilm Device (CBD) as described above. Starting from cryogenic stock, the strain was streaked out twice on TSA, and an inoculum was prepared by suspending colonies from the secondary agar subculture in 0.9% saline to match a 1.0 McFarland standard. This standard inoculum was diluted 1/30 in LB broth.
(§4) 150 μL of this inoculum was transferred into each well of a 96-well plate, and the sterile peg lid of the CBD was inserted into the plate. The inoculated device was then incubated at 125 rpm, for 24 h at 37° C. and 95% relative humidity. In an alternative set of experiments, biofilms were grown for 48 h before silver exposure and spent medium was changed with fresh medium after 24 h.
Following this period of incubation, biofilms were rinsed once with 0.9% saline (200 μL/well) to remove loosely adherent planktonic cells. Biofilm formation was evaluated by breaking off four pegs from each device after it has been rinsed. Biofilms were disrupted from pegs into 200 μL/well of LB supplemented with 1% Tween 20 using an ultrasonic cleaner for a period of 10 min (Aquasonic model 250T, VWR Scientific, Mississauga, Canada) as described above. The disrupted biofilms were serially diluted in 0.9% saline and plated on LB agar for viable cell counting. An initial set of quality control assays were carried out to ascertain that the strain used in this study formed equivalent biofilm on the CBD pegs as described in Harrison (2008). […]

[2] = test system: S. aureus ATCC 25923 biofilm; assay: High-throughput susceptibility testing of CBD biofilm to biocides/metals with or without V9T14; assay type: cell-based, Staphylococcus aureus; settings: 8 h exposure
Procedure: as §1, §2, §3
150 μL of this inoculum was transferred into each well of a 96-well plate, and the sterile peg lid of the CBD was inserted into the plate. […]
Following this period of incubation, biofilms were rinsed once with 0.9% saline (200 μL/well) to remove loosely adherent planktonic cells. Biofilm formation was evaluated by breaking off four pegs from each device after it has been rinsed. […]

[3] = test system: E. coli CFT073 biofilm; assay type: cell-based, Escherichia coli; settings: for concentration for eradication of biofilm: 24 h exposure
Procedure: as §1
Extracted V9T14 biosurfactant was stored under the chemical hood providing solvent evaporation until dryness. The biosurfactant powder was homogenized using a porcelain mortar and a pestle. V9T14 was dissolved in PBS and pH was adjusted to 7.5 with 1 N NaOH. Volume was adjusted to match a final concentration of 5000 μg/mL.
as §2, §3, §4
Following this period of incubation, biofilms were rinsed once with 0.9% saline (200 μL/well) to remove loosely adherent planktonic cells. Biofilm formation was evaluated by breaking off four pegs from each device after it has been rinsed. Biofilms were disrupted from pegs into 200 μL/well of LB supplemented with 1% Tween 20 using an ultrasonic cleaner for a period of 10 min (Aquasonic model 250T, VWR Scientific, Mississauga, Canada) as described above. The disrupted biofilms were serially diluted in 0.9% saline and plated on LB agar for viable cell counting. An initial set of quality control assays were carried out to ascertain that the strain used in this study formed equivalent biofilm on the CBD pegs as described in Harrison (2008).
(§5) The challenge plate of biocides, antibiotics and biosurfactant was made in a 96-well plate. Biocides were serially two-fold diluted in PBS and V9T14 biosurfactant was added to each well at the final concentration of 5 μL/mL. Antibiotics were similarly diluted in Muller-Hinton broth, while metals were diluted in MSVG.
Biofilms that have been grown on lids of the CBD and rinsed once in 0.9% saline were inserted in the challenge plates. Following the exposure time at 37° C., biofilms were rinsed once with 0.9% saline (200 μL/well) and then placed in a microtiter “recovery” plate that contained 200 μL/well of neutralizing medium (TSB supplemented with 1% Tween 20, 2.0 g/L reduced glutathione, 1.0 g/L L-histidine, 1.0 g/L L-cysteine). The recovery plate was sonicated for a period of 10 min (Aquasonic model 250T, VWR Scientific, Mississauga, Canada). The disrupted biofilms were serially diluted in 0.9% saline and plated on the appropriate agar medium for viable cell counting. Plates were then incubated at 37° C. overnight and finally enumerated.

[4] = test system: planktonic E. coli CFT073; assay type: cell-based, Escherichia coli
Procedure: as §5, with “MSVG. When prepared, each challenge plate had 7 sterility control, 8 growth control, 11 wells containing 5 μL/mL of V9T14 biosurfactant, 11 different concentrations of single biocide (or metals) and 11 different concentrations of biocide (or metals) associated with 5 μL/mL of V9T14 biosurfactant.” for “MSVG.”
To define MBC of biocides, recovery plates were incubated at 37° C. for 24-48 h and the adsorbance (OD650 nm) was read in a microtiter plate reader.

| SMILES | maximum increase of killing with V9T14 [1] | maximum reduction of viable cell count with V9T14 [2] | reduction of the concentration needed to bring biofilm below detectable count when V9T14 present [2] | enhancement of killing activity by presence of V9T14 ([3]; 2 h exposure, 3.750 mM silver, 5 μg/mL V9T14) | enhancement of killing activity by presence of V9T14 ([3]; 8 h exposure, 0.015 mM silver (p=0.03)) | silver concentration needed with V9T14 relative to silver alone (fold less) ([3]; biofilm reduced below detection limit) [fold] | concentration for eradication of biofilm ([3]; silver alone) [mM] | concentration for eradication of biofilm ([3]; silver with 5 μg/mL V9T14 added) [mM] | increase of killing efficacy by V9T14 ([3]; solution prepared 48 h before, 4 h exposure (p=0.0007)) | concentration required to eradicate the biofilm ([1]; silver alone, 8 h exposure) [mM] | concentration required to eradicate the biofilm ([1]; silver with 5 μg/mL V9T14, 8 h exposure) [mM] | metal concentration needed with V9T14 relative to silver alone (fold less) ([4]; 5 μg/mL V9T14, 24 h) [fold] | concentration from which complete inhibition of growth was observed ([4]; silver alone, 24 h) [mM] |
| --- | --- | --- | --- | --- | --- | --- | --- | --- | --- | --- | --- | --- | --- |
| O=S(=O)([O-])[O-].[Cu+2] [copper, cupric sulfate] | about 2.2 log10 | about 2.4 log10 | about 95% |  |  |  |  |  |  |  |  |  |  |
| O=[N+]([O-])[O-].[Ag+] [silver, silver nitrate] |  |  |  | about 0.6 log10 | about 3.2 log10 | 258 | 7.5 | 0.029 | about 2.3 log10 | 0.469 | 0.117 | 64 | 7.5 |
